From US8101180B2, “Anti-IGF-IR and/or anti-insulin/IGF-I hybrid receptors antibodies and uses thereof” (Pierre Fabre Medicament, priority 2002, dated 2012) come the findings set out here.

One assay relates to A549 cells. As to the kind of experiment: ADCC with human NK cells on A549 cells (51Cr). The class given is cell-based. Conditions: 4 hours, 10 μg antibody per 5·10^5 cells. The procedure: In order to verify this point, NK (Natural Killer) cells coming from the peripheral blood of human donors are placed in the presence of A549 or MCF-7 cells previously incubated for 4 hours with 10 μg of 7H2HM antibody per 5·10^5 cells and labeled with ^51Cr ([…]).

The subject of the next assay is MCF-7 cells. The experiment in a line: IGF2-induced proliferation of MCF-7 cells. It counts as cell-based, human. Conditions: IGF2 200 ng/ml; MAb 10 μg/ml. The procedure:
As indicated above, IGF-IR is overexpressed by numerous tumors but it has furthermore been described that in a good part of the cancers of the breast and of the colon especially, the proliferation signal is given to this receptor via IGF2 (sometimes written IGF-II or IGFII). […] In order to do this, cells were inoculated into 96-well plates, deprived of fetal calf serum and stimulated by the addition of 200 ng of IGF2 per ml, final concentration, of medium, in the presence and in the absence of the MAb to be tested introduced at a concentration of 10 μg/ml.

Assay [1] concerns A549 cells implanted intrapleurally. The experiment in a line: Orthotopic (intrapleural) A549 model, survival. Conditions: 10^6 A549 cells intrapleural; Example 3b: 500 μg/mouse challenge then 250 μg twice per week.
Procedure: In order to evaluate our antibody in a model closer to reality, the A549 cells were implanted in an intrapleural location. […] In the study which was carried out, 10^6 A549 cells were injected intrapleurally into female nude mice. 7 days after implantation, the mice were divided into 2 batches of 22.
In order to evaluate the antitumor activity of an antibody mixture directed respectively against IGF-IR and EGFR, 10^6 A549 cells (non-small cell lung cancer) were implanted in the intrapleural cavity of nude mice.
For the combined therapy, antibodies were mixed prior to the injection.
The T/C % are calculated according the following formula, [MEDIAN OF TREATED MICE/MEDIAN OF CONTROL MICE×100].

Entries after “also recorded” stand apart in the source; their conditions may differ.

Regarding “h7C10: humanized 7C10 anti-IGF-IR antibody, isotype IgG1 (humanized 1 written 7H2HM)”, the “ADCC on A549 cells” value with A549 cells is given as “capable of inducing an ADCC”.
As for “7C10: murine monoclonal anti-IGF-IR IgG1 secreted by the hybridoma deposited at the CNCM under the number I-2717”, the “inhibition of IGF2-induced growth of MCF-7 cells” value in the assay with MCF-7 cells is “totally inhibits the growth induced by IGF2; also recorded: significantly better than that of 1H7”. For the same substance, the “survival of mice orthotopically implanted with A549 cells” value in assay [1] was “significant extension of survival; also recorded: comparable and a significant gain in survival”.
